# Article PMC6269653, “Stability and Antioxidant Activity of Semi-synthetic Derivatives of 4-Nerolidylcatechol” (Molecules, 2012)
# Marks after values point to notes of the source that are not given here.
# What was measured:
# [1] = system: 3T3L1 mouse embryonic fibroblast cell line; experiment: Cellular antioxidant activity (oxidation of DCFH-DA); format: cell-based; parameters: inhibition of the oxidation of DCFH-DA in 3T3L1 cells: concentration or dose not given beside the values; settings: over the observation period of 60 min
# Description: These tests evaluate the reducing effect of a given substance on the radical species formed in situ during these assays leading to a decrease in color versus controls that is measured spectrophotometrically. […] Thus, at a concentration of 250 µM, 4-NC inhibited DPPH• and ABTS+• by 97% and 95%, respectively. Mono-O-substituted 4-NC derivatives 2–5 inhibited ABTS+• by 89–93%. […] The antioxidant activity was also evaluated in mouse embryonic 3T3L1 fibroblasts. In this assay DCFH-DA (2',7'-dichlorofluorescein diacetate) is hydrolyzed by intracellular esterases and then oxidized by reactive oxygen species (ROS) to the fluorescent compound 2'-7'-DCF. An active antioxidant substance can inhibit the transformation of fatty acids to fatty acid hydroperoxides in the cell membranes and thereby inhibit the oxidation of DCFH-DA.
# The antioxidant activity of 4-NC and semi-synthetic derivatives of 4-NC was evaluated on the 1st and 30th days after dissolving the substances in DMSO at a concentration of 10 mM and storage in a freezer at −20 °C. This experiment permitted the evaluation of the relative stability of the antioxidant activity of 4-NC, derivatives of 4-NC, BHT and BHA. Thus, cellular antioxidants were evaluated using the mouse embryonic fibroblast 3T3L1 cell line. […] The presence of mono-O or di-O,O substituent groups in the 4-NC derivatives can confer stability relative to 4-NC. Such chemical stability is highly desirable when contemplating the use of such substances in cosmetic and pharmaceutical formulations and foods. Here, 4-NC dissolved in DMSO lost more than 80% of its antioxidant activity after 30 days in the freezer.
# Intracellular ROS production was detected using the non-fluorescent cell permeating compound, 2'7'-dichlorofluorescein diacetate (DCF-DA), as described by Wolfe and Liu. DCF-DA is hydrolyzed by intracellular esterases and then oxidized by hydroperoxides into the fluorescent compound, 2'-7'-DCF. 3T3-L1 cells were seeded at a density of 6 × 10^4 cells/well in a 96-well microplate in 100 μL of growth medium. 24 h after seeding, the growth medium was removed and the wells were washed with PBS. Then, a 10 μM solution of DCFH-DA dissolved in Hank’s buffer (100 μL) was added to wells and incubated for 30 min at 37 °C and 5% CO2. The cells were washed first with PBS (100 μL) then EEP (100 µL) and samples having different concentrations were added. The fluorescence was immediately measured at an excitation wavelength of 485 nm and emission wavelength of 520 nm over 60 min at 5 min intervals. Controls with/without DCFH-DA were prepared and subjected to analogous procedures. Quercetin, BHA and BHT were used as positive controls of antioxidant activity.
# [2] = ABTS radical-scavenging activity; format: biochemical; settings: compounds tested at 250 µM; mean ± standard deviation, n = 3
# Description: The ABTS assay used herein was based on the method of Re et al. with slight modifications. Substances at concentrations of 250 µM, BHT or BHA were added to dilute ABTS solution and the absorbance at […] was measured. The antioxidant activity was calculated using the equation: % inhibition = 100 × (1 − sample abs/control abs).
# [3] = system: human leukemia cells (HL-60 and CEM); parameters: method as in ref 1 = [1]; 1. Pinto A.C.S. Pessoa C.O. Costa-Lotufo L.V. Moraes M.O. Moraes M.E.A. Cavalcanti B.C. Nunomura S.M. Pohlit A.M. In vitro cytotoxicity of Pothomorphe peltata (L.) Miquel (Piperaceae), isolated 4-nero; settings: cited from earlier work
# [4] = DPPH radical-scavenging activity; format: biochemical; settings: compounds tested at 250 µM; mean ± standard deviation, n = 3
# Description: The measurement of the scavenger activity of DPPH• was carried out according to the method of Molineux with modifications. Substances at 250 µM were added, at an equal volume, to the methanol solution of DPPH• ([…]). After 15 min at room temperature, the absorbance was recorded at 517 nm (sample abs). The experiment was repeated three times. BHT, BHA were used as controls. Values denote percentage of DPPH free radical inhibition. The antioxidant activity was calculated using the equation: % inhibition = 100 × (1 − sample abs/control abs).
# [5] = system: Plasmodium berghei; settings: oral doses of 1–10 mg/kg/day (2.5–25 µmol/kg/day), 4-day suppressive test; cited from earlier work
# [6] = system: Artemia franciscana; experiment: Brine shrimp assay; settings: in vivo
# [7] = Brine shrimp assay; parameters: species or system Artemia franciscana; settings: Artemia franciscana (brine shrimp), in vivo; read-out: Toxicity Brine shrimp (Artemia franciscana) (LC50)
structure (smiles),measurement,setting,value
"C=CC(C)(CC/C=C(\C)CCC=C(C)C)c1ccc(OC(C)=O)c(OC(C)=O)c1 (stereo not shown) [Compound 7, O,O-diacetyl-4-nerolidylcatechol]",inhibition of the oxidation of DCFH-DA in 3T3L1 cells,[1],≥ 20%
same,ABTS (%) percentage of inhibition,[2],8.60 ± 0.10 ^b %
same,IC50,[3],15.5 to 15.6 µM
same,DPPH• (%) percentage of inhibition,[4],6.36 ± 1.15 ^c %
same,in vivo inhibitory activity in P. berghei-infected mice,[5],significant in vivo inhibitory activity
same,cytotoxic activity against Artemia franciscana in the brine shrimp assay,[6],moderately toxic
same,LC50,[7],83 µM
